Measured values reported in ChEMBL document CHEMBL4308854, “Novel indole-thiazolidinone conjugates: Design, synthesis and whole-cell phenotypic evaluation as a novel class of antimicrobial agents” (Eur J Med Chem, 2018).
In brackets after ≈: the same amount, converted by molar mass.

How the values were obtained:
Mycolicibacterium aurum = experiment: Antitubercular activity against Mycobacterium aurum infected in mouse RAW264.7 cells measured after 48 hrs; type: functional
[1] = Cytotoxicity against mouse RAW264.7 cells; type: cell-based
Staphylococcus aureus [2] = experiment: Potency index, ratio of ciprofloxacin MIC to compound MIC for Staphylococcus aureus RCMB 010028; type: functional
[3] = Stability in mouse RAW264.7 cells measured after 48 hrs; type: ADME, cell-based; conditions: raw264.7, 48 h
Pseudomonas aeruginosa [4] = experiment: Antibacterial activity against Pseudomonas aeruginosa RCMB 010043 assessed as diameter of zone inhibition after 24 hrs by agar well diffusion assay; type: functional; also: test concentration or dose not given here
Escherichia coli [5] = experiment: Antibacterial activity against Escherichia coli RCMB 010052 after 24 hrs by serial dilution method; type: functional; conditions: RCMB 010052, 24 h
[6] = system: Mycobacterium tuberculosis; experiment: Antitubercular activity against Mycobacterium tuberculosis RCMB 010126 clinical isolate after 4 days by microplate alamar blue assay; type: functional; conditions: for MIC: Mycobacterium tuberculosis, RCMB 010126, 96 h
Pseudomonas aeruginosa [7] = experiment: Antibacterial activity against Pseudomonas aeruginosa RCMB 010043 after 24 hrs by serial dilution method; type: functional; conditions: RCMB 010043, 24 h
Candida albicans [8] = experiment: Antifungal activity against Candida albicans RCMB 05036 after 24 hrs by serial dilution method; type: functional; conditions: RCMB 05036, 24 h
Escherichia coli [9] = experiment: Antibacterial activity against Escherichia coli RCMB 010052 assessed as diameter of zone inhibition after 24 hrs by agar well diffusion assay; type: functional; also: test concentration or dose not given here
[10] = Selectivity index, ratio of GI50 for mouse RAW264.7 cells to MIC for Mycobacterium aurum infected in mouse RAW264.7 cells; type: toxicity, cell-based; conditions: read-out: Selectivity Index
Escherichia coli [11] = experiment: Potency index, ratio of ciprofloxacin MIC to compound MIC for Escherichia coli RCMB 010052; type: functional
Staphylococcus aureus [12] = experiment: Antibacterial activity against Staphylococcus aureus RCMB 010028 assessed as diameter of zone inhibition after 24 hrs by agar well diffusion assay; type: functional; also: test concentration or dose not given here
Candida albicans [13] = experiment: Antifungal activity against Candida albicans RCMB 05036 assessed as diameter of zone inhibition after 48 hrs by agar well diffusion assay; type: functional; also: test concentration or dose not given here
Pseudomonas aeruginosa [14] = experiment: Potency index, ratio of ciprofloxacin MIC to compound MIC for Pseudomonas aeruginosa RCMB 010043; type: functional
Aspergillus fumigatus [15] = experiment: Antifungal activity against Aspergillus fumigatus RCMB 02568 after 24 hrs by serial dilution method; type: functional; conditions: RCMB 02568, 24 h
Staphylococcus aureus [16] = experiment: Antibacterial activity against Staphylococcus aureus RCMB 010028 after 24 hrs by serial dilution method; type: functional; conditions: RCMB 010028, 24 h
Aspergillus fumigatus [17] = experiment: Antifungal activity against Aspergillus fumigatus RCMB 02568 assessed as diameter of zone inhibition after 48 hrs by agar well diffusion assay; type: functional; also: test concentration or dose not given here
Aspergillus fumigatus [18] = experiment: Potency index, ratio of amphotericin B MIC to compound MIC for Aspergillus fumigatus RCMB 02568; type: functional
[19] = system: Mycobacterium tuberculosis; experiment: Potency index, ratio of isoniazid MIC to compound MIC for antitubercular activity against Mycobacterium tuberculosis RCMB 010126 clinical isolate; type: functional
Aspergillus fumigatus [20] = experiment: Potency index, ratio of amphotericin B MIC to compound MIC for antifungal activity against Aspergillus fumigatus RCMB 02568; type: functional

Compound | MIC (Mycolicibacterium aurum) | GI50 [1] | Stability [3] | diameter of the inhibition zone (DIZ) (Pseudomonas aeruginosa [4]) | MIC (Escherichia coli [5]) | inhibition (INH) [6] | MIC [6] | MIC (Pseudomonas aeruginosa [7]) | MIC (Candida albicans [8]) | diameter of the inhibition zone (DIZ) (Escherichia coli [9]) | selectivity ratio [10] | Ratio (Escherichia coli [11]) | diameter of the inhibition zone (DIZ) (Staphylococcus aureus [12]) | diameter of the inhibition zone (DIZ) (Candida albicans [13]) | Ratio (Pseudomonas aeruginosa [14]) | MIC (Aspergillus fumigatus [15]) | MIC (Staphylococcus aureus [16]) | diameter of the inhibition zone (DIZ) (Aspergillus fumigatus [17]) | other results
CCOC(=O)c1sc(/N=C2\NC(=O)/C(=C3/C(=O)Nc4ccc(Cl)cc43)S2)nc1C | > 200 µg/mL | > 125 µg/mL | Stable | 22.6 mm | 0.98 µg/mL (≈ 2.18 µM) | 56.34% | 0.39 µg/mL (≈ 0.869 µM) | 0.98 µg/mL (≈ 2.18 µM) | 0.49 µg/mL (≈ 1.09 µM) | 23.2 mm | < 0.625 | 2 | 23.1 mm | 24.4 mm | 4 | 1.95 µg/mL (≈ 4.34 µM) | 0.98 µg/mL (≈ 2.18 µM) | 22.7 mm | Ratio (Staphylococcus aureus [2]): 2; Ratio (Aspergillus fumigatus [18]): 2; Ratio [19]: 2
CC(=O)c1sc(/N=C2\NC(=O)/C(=C3/C(=O)Nc4ccccc43)S2)nc1C | – | – | – | 19.9 mm | 0.98 µg/mL (≈ 2.55 µM) | 63.24% | 1.56 µg/mL (≈ 4.06 µM) | 3.9 µg/mL (≈ 10.1 µM) | 0.98 µg/mL (≈ 2.55 µM) | 22.8 mm | – | 2 | 20.3 mm | 22.7 mm | – | 1.95 µg/mL (≈ 5.07 µM) | 3.9 µg/mL (≈ 10.1 µM) | 21.5 mm | –
CC(=O)c1sc(/N=C2\NC(=O)/C(=C/c3c[nH]c4ccccc34)S2)nc1C | – | – | – | 18.5 mm | 1.95 µg/mL (≈ 5.1 µM) | 52.41% | 3.12 µg/mL (≈ 8.16 µM) | 7.81 µg/mL (≈ 20.4 µM) | 1.95 µg/mL (≈ 5.1 µM) | 21.3 mm | – | – | 18.9 mm | 20.9 mm | – | 3.9 µg/mL (≈ 10.2 µM) | 7.81 µg/mL (≈ 20.4 µM) | 20.3 mm | –
CCOC(=O)c1sc(/N=C2\NC(=O)/C(=C3/C(=O)N(C)c4ccccc43)S2)nc1C | 200 µg/mL (≈ 467 µM) | 500 µg/mL (≈ 1170 µM) | Stable | 21.5 mm | 1.95 µg/mL (≈ 4.55 µM) | 76.35% | 0.39 µg/mL (≈ 0.91 µM) | 1.95 µg/mL (≈ 4.55 µM) | 0.98 µg/mL (≈ 2.29 µM) | 21.5 mm | 2.5 | – | 21.8 mm | 22.4 mm | 2 | 1.95 µg/mL (≈ 4.55 µM) | 1.95 µg/mL (≈ 4.55 µM) | 21.6 mm | –
CC(=O)c1sc(/N=C2\NC(=O)/C(=C3/C(=O)Nc4ccc(Cl)cc43)S2)nc1C | – | – | – | 22.5 mm | 0.49 µg/mL (≈ 1.17 µM) | 74.32% | 0.78 µg/mL (≈ 1.86 µM) | 0.98 µg/mL (≈ 2.34 µM) | 0.49 µg/mL (≈ 1.17 µM) | 24.3 mm | – | 4 | 22.1 mm | 24.2 mm | 4 | 0.98 µg/mL (≈ 2.34 µM) | 0.98 µg/mL (≈ 2.34 µM) | 22.9 mm | Ratio (Staphylococcus aureus [2]): 2; Ratio (Aspergillus fumigatus [20]): 2; Ratio (Aspergillus fumigatus [18]): 2
CCOC(=O)c1sc(/N=C2\NC(=O)/C(=C3/C(=O)N(C)c4ccc(Cl)cc43)S2)nc1C | – | – | – | 21.5 mm | 0.98 µg/mL (≈ 2.12 µM) | 68.31% | 0.78 µg/mL (≈ 1.68 µM) | 1.95 µg/mL (≈ 4.21 µM) | 1.95 µg/mL (≈ 4.21 µM) | 22.3 mm | – | 2 | 21.4 mm | 21.3 mm | 2 | 3.9 µg/mL (≈ 8.42 µM) | 1.95 µg/mL (≈ 4.21 µM) | 20.8 mm | –
CC(=O)c1sc(/N=C2\NC(=O)/C(=C3/C(=O)N(Cc4ccccc4)c4ccccc43)S2)nc1C | – | – | – | 20.3 mm | 0.98 µg/mL (≈ 2.07 µM) | 58.34% | 1.56 µg/mL (≈ 3.29 µM) | 3.9 µg/mL (≈ 8.22 µM) | 0.98 µg/mL (≈ 2.07 µM) | 23.4 mm | – | 2 | 21.2 mm | 22.5 mm | – | 1.95 µg/mL (≈ 4.11 µM) | 1.95 µg/mL (≈ 4.11 µM) | 21.7 mm | –
CC(=O)c1sc(/N=C2\NC(=O)/C(=C3/C(=O)N(Cc4ccccc4)c4ccc(Cl)cc43)S2)nc1C | – | – | – | 23.5 mm | 0.49 µg/mL (≈ 0.963 µM) | 80.34% | 0.39 µg/mL (≈ 0.766 µM) | 0.98 µg/mL (≈ 1.93 µM) | 0.49 µg/mL (≈ 0.963 µM) | 25.6 mm | – | 4 | 23.6 mm | 25.3 mm | 4 | 0.98 µg/mL (≈ 1.93 µM) | 0.98 µg/mL (≈ 1.93 µM) | 23.6 mm | Ratio (Staphylococcus aureus [2]): 2; Ratio (Aspergillus fumigatus [20]): 2; Ratio (Aspergillus fumigatus [18]): 2; Ratio [19]: 2
COc1ccc2c(c1)/C(=C1/S/C(=N/c3nc(C)c(C(C)=O)s3)NC1=O)C(=O)N2 | – | – | – | 21.4 mm | 1.95 µg/mL (≈ 4.7 µM) | 64.35% | 1.56 µg/mL (≈ 3.76 µM) | 1.95 µg/mL (≈ 4.7 µM) | 1.95 µg/mL (≈ 4.7 µM) | 22.4 mm | – | – | 21.7 mm | 21.3 mm | 2 | 1.95 µg/mL (≈ 4.7 µM) | 1.95 µg/mL (≈ 4.7 µM) | 20.8 mm | –
CCOC(=O)c1sc(/N=C2\NC(=O)/C(=C3/C(=O)Nc4ccc(OC)cc43)S2)nc1C | > 200 µg/mL | > 62.5 µg/mL | Stable | 22.1 mm | 0.98 µg/mL (≈ 2.2 µM) | 84.35% | 0.39 µg/mL (≈ 0.877 µM) | 1.95 µg/mL (≈ 4.39 µM) | 0.98 µg/mL (≈ 2.2 µM) | 22.6 mm | < 0.312 | 2 | 22.7 mm | 23.3 mm | 2 | 1.95 µg/mL (≈ 4.39 µM) | 0.98 µg/mL (≈ 2.2 µM) | 22.1 mm | Ratio (Staphylococcus aureus [2]): 2; Ratio [19]: 2
CCOC(=O)c1sc(/N=C2\NC(=O)/C(=C3/C(=O)Nc4ccccc43)S2)nc1C | 100 µg/mL (≈ 241 µM) | 125 µg/mL (≈ 302 µM) | Stable | 21.8 mm | 1.95 µg/mL (≈ 4.7 µM) | 72.14% | 0.78 µg/mL (≈ 1.88 µM) | 1.95 µg/mL (≈ 4.7 µM) | 0.98 µg/mL (≈ 2.36 µM) | 22.4 mm | 1.25 | – | 22.5 mm | 22.7 mm | 2 | 0.98 µg/mL (≈ 2.36 µM) | 0.98 µg/mL (≈ 2.36 µM) | 21.6 mm | Ratio (Aspergillus fumigatus [20]): 2
CCOC(=O)c1sc(/N=C2\NC(=O)/C(=C/c3c[nH]c4ccccc34)S2)nc1C | – | – | – | 18.5 mm | 1.95 µg/mL (≈ 4.73 µM) | 46.35% | 6.24 µg/mL (≈ 15.1 µM) | 7.81 µg/mL (≈ 18.9 µM) | 1.95 µg/mL (≈ 4.73 µM) | 21.3 mm | – | – | 18.9 mm | 20.9 mm | – | 3.9 µg/mL (≈ 9.45 µM) | 3.9 µg/mL (≈ 9.45 µM) | 20.3 mm | –
CCOC(=O)c1sc(/N=C2\NC(=O)/C(=C3/C(=O)N(Cc4ccccc4)c4ccccc43)S2)nc1C | 200 µg/mL (≈ 396 µM) | 500 µg/mL (≈ 991 µM) | Stable | 23.1 mm | 0.98 µg/mL (≈ 1.94 µM) | 87.38% | 0.39 µg/mL (≈ 0.773 µM) | 1.95 µg/mL (≈ 3.86 µM) | 0.49 µg/mL (≈ 0.971 µM) | 24.8 mm | 2.5 | 2 | 24.2 mm | 25.2 mm | 2 | 0.98 µg/mL (≈ 1.94 µM) | 1.95 µg/mL (≈ 3.86 µM) | 23.2 mm | Ratio (Aspergillus fumigatus [20]): 2
CC(=O)c1sc(/N=C2\NC(=O)/C(=C/c3cn(Cc4ccccc4)c4ccccc34)S2)nc1C | – | – | – | 17.3 mm | 3.9 µg/mL (≈ 8.25 µM) | 56.35% | 1.56 µg/mL (≈ 3.3 µM) | 15.6 µg/mL (≈ 33.1 µM) | 31.2 µg/mL (≈ 66.1 µM) | 20.3 mm | – | – | 20.6 mm | 16.2 mm | – | 3.9 µg/mL (≈ 8.25 µM) | 1.95 µg/mL (≈ 4.13 µM) | 20.3 mm | –
